Test results reported in US6887691B2, “DNA coding for protein which confers on bacterium Escherichia coli resistance to L-homoserine, and method for producing L-amino acids” (priority 1998, dated 2005).

Columns and labels:
Assay in all cases: MIC of amino acids and amino acid analogues on M9 agar test plates
Assay type in all cases: cell-based
[1] = tested on: E. coli strain N99 (rhtB+); conditions: Escherichia coli, initial strain, doubling increments, examined after 40-46 h cultivation
Procedure: (§1) Then the susceptibility of the thus obtained E. coli strain N99 rhtB::cat, of the initial strain N99 (rhtB^+) and of its derivative transformed with pRhtB plasmid, N99/pRhtB, to some amino acids and amino acid analogues was tested. overnight cultures of the strains grown in M9 minimal medium at 37° C. with a rotary shaker (10^9 cfu/ml) were diluted 1:100 and grown for 5 hours under the same conditions. Then the log phase cultures thus obtained were diluted and about 10^4 of alive cells were applied to well-dried test plates with M9 agar containing doubling increments of amino acids or analogues. The minimum inhibitory concentration (MIC) of these compounds were examined after 40-46 h cultivation.

[2] = tested on: E. coli strain N99/pRhtB; conditions: Escherichia coli
Procedure: as §1

[3] = tested on: E. coli strain N99 rhtB::cat; conditions: Escherichia coli
Procedure: To inactivate the chromosomal rhtB gene the plasmid pNPZ46 was constructed (FIG. 1) on the basis of pUK21 vector. It harbors a DNA fragment from 86 min of E. coli chromosome, with the rhtB gene and 5′-flanking and 3′-flanking regions thereof. Then the ClaI-Eco47III fragment of the pNPZ46 plasmid rhtB gene was substituted for AsuII-BsrBI fragment containing cat (Cm^R) gene of pACYC184 plasmid (Chang and Cohen, J. Bacteriol., 134, 1141-1156, 1978) giving the pNPZ47 plasmid (FIG. 1). To introduce the obtained insertionally inactivated rhtB gene into the chromosome of the E. coli strain N99 (the streptomycin-resistant derivative of the known strain W3350 (Campbell, Virology, 14, 22-33, 1961)), the method of Parker and Marinus was used (Parker, B. and Marinus, M. G., Gene, 73, 531-535, 1988).
as §1

Q: With N[C@@H](CCO)C(=O)O [L-homoserine] as the compound, how does the MIC [1] read?
A: The MIC was 250 µg/mL.

Q: What about the MIC [2] of the same compound?
A: Its MIC is 30000 µg/mL.

Q: What about the MIC [3] of the same compound?
A: Its MIC is 125 µg/mL.

Q: How did the MIC [1] turn out when CC(C)[C@H](N)C(=O)O [L-valine] was run?
A: The MIC was 0.5 µg/mL.

Q: What about the MIC [2] of the same compound?
A: Its MIC is 1 µg/mL.

Q: What about the MIC [3] of the same compound?
A: The MIC was 0.5 µg/mL.

Q: How did the MIC [1] turn out when CCCC(N)(O)C(=O)O (stereo not drawn) [AHVA, α-amino-α-hydroxyvaleric-acid, reference compound] was run?
A: The MIC was 50 µg/mL.

Q: What about the MIC [2] of the same compound?
A: The MIC was 2000 µg/mL.

Q: What about the MIC [3] of the same compound?
A: Its MIC is 25 µg/mL.

Q: Which MIC [1] does the source give for NCCSC[C@H](N)C(=O)O [AEC, S-(2-aminoethyl)-L-cysteine, reference compound] here?
A: Its MIC is 10 µg/mL.

Q: And the MIC [2]?
A: The MIC was 25 µg/mL.

Q: And the MIC [3]?
A: The MIC was 10 µg/mL.

Q: What does the source list for N[C@@H](CO)C(=O)O [L-serine]?
A: MIC [1]: 5000 µg/mL; MIC [2]: 10000 µg/mL; MIC [3]: 5000 µg/mL

Q: For C[C@@H](O)[C@H](N)C(=O)O [L-threonine], which MIC [1] is on record?
A: Its MIC is 30000 µg/mL.

Q: What about the MIC [2] of the same compound?
A: Its MIC is 50000 µg/mL.

Q: And the MIC [3]?
A: Its MIC is 30000 µg/mL.

Q: Which results are given for CN(C)CC(N)C(=O)O (racemic) [4-aza-DL-leucine, reference compound]?
A: MIC [1]: 40 µg/mL; MIC [2]: 100 µg/mL; MIC [3]: 40 µg/mL
